{"source": "paper PMC5665643", "about": "“CHIP as a membrane-shuttling proteostasis sensor” (eLife, 2017)", "key": {"CHIP [1]": {"system": "CHIP", "test": "Lipid-binding assay (membrane-immobilized lipids, lipid arrays)", "design": "species or system Human", "details": "lipid strips/PIP strips, 0.5 µg/ml wild-type chaperone-free CHIP, 1 hr at RT, anti-C-CHIP antibody", "procedure": "(§1) Human recombinant full length CHIP and its truncated versions were purified from Escherichia coli BL21 cells using Glutathion Sepharose 4B (GE Healthcare). Sepharose-bound GST-CHIP was subjected to overnight treatment with PreScission protease and the released tag-free protein was collected. Size exclusion chromatography on a HiLoad Superdex 200 column (GE Healthcare) followed to ensure the purity and homogeneity of proteins. All CHIP variants were kept in HSP70 buffer (25 mM HEPES KOH pH 7.5, 150 mM KCl, 5 mM MgCl2, 5% glycerol, 1 mM DTT).\nMembrane-immobilized lipids (Membrane lipid strips P-6002 and PIP strips P-6001) were purchased from Echelon Research Laboratories. The strips were incubated with blocking buffer (3% fatty acid free BSA, 0.1% (v/v) Tween-20 in PBS pH 7.5) for 1 hr at RT. 0.5 µg/ml of purified wild-type or mutant CHIP was added in blocking buffer and incubated for 1 hr at RT. Strips were washed and bound proteins were detected using anti-C-CHIP antibody. For competition experiments, ten times molar excess of C-terminal HSP70 was added to CHIP in blocking buffer."}, "CHIP [2]": {"system": "CHIP", "test": "Liposome floatation assay", "type": "binding, Human", "details": "20% PA, 1 mM liposomes, 0.5 µM CHIP, 30 min at 37°C, pH 7.5", "procedure": "as §1\n(§2) Liposomes were prepared by mixing 1,2-dioleoyl-sn-glycero-3-phosphocholine (DOPC) with indicated amount (wt/wt) of either 1,2-dipalmitoyl-sn-glycero-3-phosphate (phosphatidic acid) or (wt/wt) 1,2-dipalmitoyl-sn-glycero-3-phosphoinositol-4-phosphate (PI4P) in a 1.5 ml reaction tube (Eppendorf). […] The liposome suspension was subjected to five freeze-thaw cycles in liquid nitrogen to promote unilamellar vesicle formation, aliquoted in 200 µl and pulse-sonicated for 8 s at 45% output with MS72 sonotrode (Bandelin) to create a population of homogenously sized liposomes as determined using NanoSight (Malvern Instruments). […]\n1 mM liposomes and 0.5 µM CHIP were incubated in 150 µl reconstitution buffer for 30 min at 37°C. […] Resulting fractions were analyzed by SDS-PAGE and western blotting after loading dilution-corrected amount of respective fractions."}, "CHIP [3]": {"system": "CHIP", "test": "Liposome pelleting assay, effect of lipids and HSP70-C on CHIP association", "type": "binding, Human", "details": "2 mM liposomes, 2 µM CHIP, 30 min at 37°C, N = 3", "procedure": "as §1\nHuman C-terminal HSP70 6xHis-tagged N-terminally was purified from Escherichia coli BL21 cells using 1 ml HisTrap column (GE Healthcare). Bound protein was eluted by applying an imidazole gradient. Fractions containing the protein were subjected to size exclusion chromatography using HiLoad Superdex 200 in HSP70 buffer. His-NQO1, His-UbcH5a, His-Uev1a and His-Ubc13 were purified similarly except that PBS/1 mM DTT was used during size exclusion chromatography. Purity of recombinant protein was evaluated by SDS-PAGE and Coomassie BB G-250 (CBB) staining. Concentration of proteins was determined measuring absorbance at 280 nm and using ProtParam (ExPASy) to calculate respective extinction coefficients. Proteins were aliquoted, snap-frozen and stored at −80°C.\nLiposomes were prepared by mixing 1,2-dioleoyl-sn-glycero-3-phosphocholine (DOPC) with indicated amount (wt/wt) of either 1,2-dipalmitoyl-sn-glycero-3-phosphate (phosphatidic acid) or (wt/wt) 1,2-dipalmitoyl-sn-glycero-3-phosphoinositol-4-phosphate (PI4P) in a 1.5 ml reaction tube (Eppendorf). Lipid mixtures were dried under a nitrogen stream and kept for 1 hr under vacuum. Liposomes were rehydrated in 1 ml filtered reconstitution buffer (25 mM HEPES KOH pH 7.5, 50 mM NaCl) to a concentration of 10 mM lipids. Liposomes were reconstituted by shaking at 2000 rpm for 1 hr at 50°C, followed by sonication for 1 hr at 50°C in a water bath. The liposome suspension was subjected to five freeze-thaw cycles in liquid nitrogen to promote unilamellar vesicle formation, aliquoted in 200 µl and pulse-sonicated for 8 s at 45% output with MS72 sonotrode (Bandelin) to create a population of homogenously sized liposomes as determined using NanoSight (Malvern Instruments). Sonicated liposomes were pooled, aliquoted again, snap-frozen and stored at −80°C.\n2 mM liposomes were mixed with 2 µM recombinant protein in 50 µl reconstitution buffer. The suspension was incubated shaking at 450 rpm for 30 min at 37°C. Liposomes with bound protein were sedimented by ultracentrifugation at 100,000 g for 30 min at 25°C. Liposome pellet was washed with 50 µl of reconstitution buffer and sedimented again at 100,000 g for 30 min at 25°C. The pellet was resuspended in 10 µl reconstitution buffer, resolved by SDS-PAGE and analyzed by CBB staining. Images were acquired with ChemiDoc MP imaging system and quantified using Image Lab 5.0 software (both from Bio-Rad Laboratories). For competition assays, indicated amounts of C-terminal HSP70 were preincubated with 2 µM CHIP for 20 min at 37°C prior to co-sedimentation."}, "recombinant CHIP": {"system": "recombinant CHIP", "test": "Chemical crosslinking of recombinant CHIP in vitro", "type": "biochemical, Human", "details": "sodium deoxycholate, Coomassie Blue-stained reducing SDS-PAGE", "procedure": "as §1\n5 µM of recombinant CHIP were crosslinked with 0.025% glutaraldehyde for 10 min at 30°C unless indicated otherwise. Crosslinking reaction was quenched with 100 mM Tris HCl pH 7.5 for 10–15 min at RT. Where indicated, HSP70 peptide at 800 μM was pre-incubated at 30°C for 20 min before adding glutaraldehyde. Crosslinking on 20% PA-containing liposomes was performed after centrifugation on the resuspended pellet. For CHIP monomerization, fresh 10% sodium deoxycholate stock solution was used. Crosslinks were analyzed with SDS-PAGE and CBB staining."}, "CHIP [4]": {"system": "CHIP", "details": "steroid detergent deoxycholate, monomerization; ref Nikolay et al., 2004; cited from earlier work", "excerpt": "Since lipid binding can influence the activity of enzymes ([Fang et al., 2001]; [Leonard and Hurley, 2011]), we sought to assess the ubiquitylation function of CHIP upon interaction with membranes. […] First, CHIP remained dimeric and was still capable of oligomerization (Figure 4a)."}, "[5]": {"test": "Liposome pelleting assay, binding of CHIP and truncated variants to liposomes", "details": "20% PA- or 5% PI4P-containing DOPC liposomes, 2 mM liposomes, 2 µM CHIP, 37°C; up to", "excerpt": "(§3) For mammalian expression of EGFP, the expression vector pEGFP-N1 from Clontech (Mountain View, CA) was used. N-terminal EGFP-CHIP fusion protein was constructed by cloning human CHIP coding sequence in pEGFP-C2 vector (Clontech) using HindIII and BamHI restriction sites. A fusion between the N-terminalβ−1,4-galactosyltransferase1 and EGFP was used as a marker of the Golgi apparatus, farnesylated EGFP as a marker of plasma membrane (both constructs from Clontech). Untagged and 3xFLAG-tagged human CHIP for mammalian expression were constructed in pCMV-10 vector (Sigma-Aldrich). HSP70 was amplified from human cDNA and cloned into pcDNA3. 1 expression vector without a tag. HSP70 lacking the last amino acid (HSP70ΔD) was prepared by site-directed mutagenesis. Vectors of full-length CHIP, UbcH5a and mutant NQO1 for bacterial expression were prepared as described ([Martínez-Limón et al., 2016]). The TPR domain bacterial expression vector (TPR) was created by exchanging glutamate152 codon to a stop codon in the full-length CHIP vector. CHIP without TPR domain (ΔTPR) was cloned by deleting the sequence between serine25 and argininge130 by means of PCR. […]\nas §2\n2 mM liposomes were mixed with 2 µM recombinant protein in 50 µl reconstitution buffer. […] The pellet was resuspended in 10 µl reconstitution buffer, resolved by SDS-PAGE and analyzed by CBB staining. Images were acquired with ChemiDoc MP imaging system and quantified using Image Lab 5.0 software (both from Bio-Rad Laboratories). […]"}, "[6]": {"system": "NQO1 P187S mutant; ubiquitin; CHIP", "test": "In vitro ubiquitylation on liposomes", "type": "biochemical", "details": "37°C 1 hr", "procedure": "In vitro ubiquitylation was performed in 50 mM Tris HCl pH 7.5, 50 mM NaCl, 10 mM MgCl2, 2 mM DTT and 2 mM ATP. Reactions contained 100 nM UBE1 (Boston Biochem, Cambridge, MA), 2 µM either UbcH5a or Uev1A/Ubc13, 5 µM CHIP and […] ubiquitin from bovine erythrocytes (Sigma-Aldrich). 2.5 µM NQO1 P187S mutant was added as substrate where indicated. Reactions proceeded at 37°C for 1 hr and then were stopped by adding reducing SDS sample buffer and boiling samples at 95°C for 5 min. Protein modification was analyzed by SDS-PAGE and immunoblotting using antibodies against NQO1, CHIP and ubiquitin. Where indicated, CHIP pelleted with 20% PA-containing liposomes was used instead of soluble protein."}, "trypsin": {"system": "trypsin", "test": "Protease sensitivity assay (trypsin)", "type": "physicochemical", "details": "0.5 ng/µl trypsin, 37°C, 20% PA-containing liposomes; no significant difference; N = 3", "procedure": "CHIP pelleted with 20% PA-containing liposomes was subjected to 0.5 ng/µl trypsin treatment at 37°C. Hydrolysis was stopped by adding hot reducing SDS sample buffer and boiling for 5 min. Samples were analyzed by SDS-PAGE and CBB staining. For controls without liposomes, protein was used at concentration assuming 30% binding to liposomes. Images were acquired with ChemiDoc MP imaging system and quantified using Image Lab 5.0 software (both from Bio-Rad Laboratories)."}, "[7]": {"test": "Lipid-binding assay, binding of CHIP variants to phospholipids", "details": "0.5 µg/ml protein, 1 hr at RT", "excerpt": "as §3\nMembrane-immobilized lipids (Membrane lipid strips P-6002 and PIP strips P-6001) were purchased from Echelon Research Laboratories. […] Strips were washed and bound proteins were detected using anti-C-CHIP antibody. […]"}}, "note": "Entries after “also recorded” stand apart in the source; their conditions may differ."}
{"molecule": "CCCCCCCCCCCCCCCC(=O)OC[C@H](COP(=O)(O)O)OC(=O)CCCCCCCCCCCCCCC", "note": "[PA, 1,2-dipalmitoyl-sn-glycero-3-phosphate]", "values": [{"measurement": "CHIP binding to phospholipid on lipid array", "setting": "CHIP [1]", "result": "CHIP specificity mainly to phosphatidic acid (PA)"}, {"measurement": "CHIP cofloatation with DOPC liposomes", "setting": "CHIP [2]", "result": "strongly enhanced"}, {"measurement": "CHIP association with DOPC-liposomes (pelleting), 5% PA", "setting": "CHIP [3]; 5% PA, no significant difference", "result": "insufficient to strengthen binding of CHIP onto liposomes; also recorded: insufficient to enhance binding of CHIP to DOPC-liposomes"}, {"measurement": "CHIP association with DOPC-liposomes (pelleting), PA", "setting": "CHIP [3]; PA-containing liposomes (Figure 2b)", "result": "pelleting was increased in the presence of PA; also recorded: strongly"}]}
{"molecule": "C[C@H](CCC(=O)O)[C@H]1CC[C@H]2[C@@H]3CC[C@@H]4C[C@H](O)CC[C@]4(C)[C@H]3C[C@H](O)[C@]12C", "note": "[deoxycholate, sodium deoxycholate]", "values": [{"measurement": "monomerization of CHIP", "setting": "recombinant CHIP", "result": "monomerizes CHIP in vitro"}, {"measurement": "ubiquitin ligase activity of CHIP", "setting": "CHIP [4]", "result": "reversibly inactivate its ubiquitin ligase activity"}]}
{"molecule": "CHIP: human recombinant full length CHIP, ubiquitin ligase", "values": [{"measurement": "CHIP associated with liposomes, % of input", "setting": "[5]", "result": "50–60%"}, {"measurement": "ubiquitylation of NQO1 and K63 chain formation while attached to liposomes", "setting": "[6]; 5 µM CHIP or CHIP pelleted with 20% PA-containing liposomes, UbcH5a or Ubc13/Uev1a", "result": "remains capable to ubiquitylate the substrate protein NQO1 and form unattached K63-conjugated chains"}, {"measurement": "K63-based ubiquitin polymerization on liposomes versus soluble", "setting": "[6]; Ubc13/Uev1a, 20% PA-containing liposomes", "result": "slightly weaker on liposomes"}, {"measurement": "auto-ubiquitylation on liposomes versus soluble", "setting": "[6]; UbcH5a, 20% PA-containing liposomes", "result": "somewhat stronger on liposomes"}, {"measurement": "sensitivity to proteolysis on liposomes versus in solution", "setting": "trypsin", "result": "does not change its sensitivity to proteolysis"}]}
{"molecule": "m2Δ: CHIP with KRKK to AAAA (221–224 aa) (protein, UniProt Q9UNE7 1-303, looked up, variant K221A R222A K223A K224A) E3 ubiquitin-protein ligase …: MKGKEEKEGGARLGAGGGSPEKSPSAQELKEQGNRLFVGRKYPEAAACYGRAITRNPLVAVYYTNRALCYLKMQQHEQALADCRRALELDGQSVKAHFFLGQCQLEMESYDEAIANLQRAYSLAKEQRLNFGDDIPSALRIAKKKRWNSIEERRIHQESELHSYLSRLIAAERERELEECQRNHEGDEDDSHVRAQQACIEAKHDKYMADMDELFSQVDEAAAARDIPDYLCGKISFELMREPCITPSGITYDRKDIEEHLQRVGHFDPVTRSPLTQEQLIPNLAMKEVIDAFISENGWVEDY", "values": [{"measurement": "phospholipid binding of CHIP variant versus wild-type", "setting": "[7]", "result": "affects CHIP interaction with phospholipids in vitro"}]}
